Test results reported in patent publication US20160302455A1, “Methods Of Producing An Antimicrobial Solution And Methods For Reducing Bacteria On Produce And/Or Minimizing Enzymatic Browning Of Produce” (priority 2015, published 2016).
Read-outs that look alike come from different tables or passages of the source. Ends that are not written are not given here.

Assays:
L. monocytogenes [1] = assay type: cell-based, Listeria monocytogenes
Salmonella spp. [2] = assay type: cell-based
E. coli O157:H7 [3] = assay type: cell-based, Escherichia coli O157:H7
[4] = tested on: Aerobic, mesophilic bacteria; assay type: cell-based
[5] = tested on: Aerobic mesophilic bacteria
E. coli O157:H7 [6] = assay type: cell-based, Escherichia coli O157:H7; remark: listed apart in the source
Salmonella spp. [7] = assay type: cell-based; remark: listed apart in the source
[8] = tested on: Aerobic mesophilic bacteria; remark: listed apart in the source
L. monocytogenes [9] = assay type: cell-based, Listeria monocytogenes; remark: listed apart in the source

Compound	Log reduction of L. monocytogenes on cantaloupe rind surface (L. monocytogenes [1])	Log reduction of Salmonella spp on cantaloupe rind surface (Salmonella spp. [2])	Log reduction of E. coli O157:H7 on cantaloupe rind surface (E. coli O157:H7 [3])	Log reduction of aerobes on cantaloupe rind surface [4]	Population of aerobic mesophilic bacteria, fresh-cut [5] [D Log10 CFU/g]	Average population of E. coli O157:H7 inactivated (E. coli O157:H7 [6]) [log]	Average population of Salmonella inactivated (Salmonella spp. [7]) [log]	Population of aerobic mesophilic bacteria, fresh-cut [8] [D Log10 CFU/g]	Average population of L. monocytogenes inactivated (L. monocytogenes [9]) [log]	Population of aerobic mesophilic bacteria, fresh-cut [4] [C Log10 CFU/g]
C/C=C/C=C/C(=O)O [Sorbic acid (0.03%), Sorbic acid]	(2.2) log	(2.0) log	(1.8) log	(1.1) log						
O=C(O)CC(O)(CC(=O)O)C(=O)O [Citric Acid (10 mM), Citric acid]	(2.0) log	(1.8) log	(1.5) log	(1.2) log						
OO [hydrogen peroxide]	(3.4) log	(3.0) log	(2.9) log	(2.0) log	0.5 ± 0.10	5.5	5.1	0.3 ± 0.02	5.0	1.9 ± 0.10
O=C(O)CN(CCN(CC(=O)O)CC(=O)O)CC(=O)O [EDTA (0.02 M), ethylenediaminetetraacetic acid]	(0.2) log	(0.4) log	(0.3) log	(0.4) log						
nisin (ITSISLCTPGCKTGALMGCNMKTATCHCSIHVSK; not fully specified (some residues, bridges); cysteine pairing not given here; UniProt P13068 24-57, looked up) [Nisin (30 mg; (~10 μg/ml)]	(3.6) log			(1.2) log						
Sodium Lactate [Sodium Lactate (2%)]	(2.8) log	(1.5) log	(1.4) log	(1.1) log						
